According to the supplement of paper PMC10307832:

Legend:
Assay in all cases: relative viability (nuclei count vs DMSO), 5 days (fraction); higher = more cells survive
Sunitinib + Palbociclib = compound: CCN(CC)CCNC(=O)c1c(C)[nH]c(/C=C2\C(=O)Nc3ccc(F)cc32)c1C [Sunitinib] + CC(=O)c1c(C)c2cnc(Nc3ccc(N4CCNCC4)cn3)nc2n(C2CCCC2)c1=O [Palbociclib] (partner 0.5 µM)
Procedure, shortened: (§1)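 Relative viability divides the nuclei count in treated wells by that in vehicle wells. Lung cancer cell lines were seeded in 1536-well plates, dosed by pin tool the next day, and fixed and stained after 5 days in one step with final 0.05% Triton X-100, 1% formaldehyde and 1 ug/ml Hoechst. Dosing was a single drug or a fixed anchor-drug dose plus five library-drug doses (not always all listed) in √10 steps, and values are medians of duplicate plates imaged at 4×.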

Sunitinib + Pictilisib = compound: CCN(CC)CCNC(=O)c1c(C)[nH]c(/C=C2\C(=O)Nc3ccc(F)cc32)c1C [Sunitinib] + CS(=O)(=O)N1CCN(Cc2cc3nc(-c4cccc5[nH]ncc45)nc(N4CCOCC4)c3s2)CC1 [Pictilisib] (partner 1 µM)
Procedure, shortened: as §1

Sunitinib + Phenformin = compound: CCN(CC)CCNC(=O)c1c(C)[nH]c(/C=C2\C(=O)Nc3ccc(F)cc32)c1C [Sunitinib] + N=C(N)NC(=N)NCCc1ccccc1 [Phenformin] (partner 250 µM)
Procedure, shortened: as §1

Sunitinib + Decitabine = compound: CCN(CC)CCNC(=O)c1c(C)[nH]c(/C=C2\C(=O)Nc3ccc(F)cc32)c1C [Sunitinib] + Nc1ncn([C@H]2C[C@H](O)[C@@H](CO)O2)c(=O)n1 [Decitabine] (partner 2 µM)
Procedure, shortened: as §1

Row | Cell Line | relative viability (Sunitinib + Palbociclib; first compound 0.02 µM) | relative viability (Sunitinib + Palbociclib; first compound 0.06325 µM) | relative viability (Sunitinib + Palbociclib; first compound 0.2 µM) | relative viability (Sunitinib + Palbociclib; first compound 0.6325 µM) | relative viability (Sunitinib + Palbociclib; first compound 2 µM) | relative viability (Sunitinib + Pictilisib; first compound 0.02 µM) | relative viability (Sunitinib + Pictilisib; first compound 0.06325 µM) | relative viability (Sunitinib + Pictilisib; first compound 0.2 µM) | relative viability (Sunitinib + Pictilisib; first compound 0.6325 µM) | relative viability (Sunitinib + Pictilisib; first compound 2 µM) | relative viability (Sunitinib + Phenformin; first compound 0.02 µM) | relative viability (Sunitinib + Phenformin; first compound 0.06325 µM) | relative viability (Sunitinib + Phenformin; first compound 0.2 µM) | relative viability (Sunitinib + Phenformin; first compound 0.6325 µM) | relative viability (Sunitinib + Phenformin; first compound 2 µM) | relative viability (Sunitinib + Decitabine; first compound 0.02 µM) | relative viability (Sunitinib + Decitabine; first compound 0.06325 µM) | relative viability (Sunitinib + Decitabine; first compound 0.2 µM) | relative viability (Sunitinib + Decitabine; first compound 0.6325 µM) | relative viability (Sunitinib + Decitabine; first compound 2 µM)
1 | SW 1573 | 0.412 | 0.316 | 0.42 | 0.414 | 0.397 | 0.511 | 0.438 | 0.591 | 0.555 | 0.458 | 0.338 | 0.449 | 0.368 | 0.386 | 0.306 | 0.403 | 0.508 | 0.556 | 0.62 | 0.554
2 | NCI-H358 | 0.138 | 0.158 | 0.138 | 0.132 | 0.125 | 0.369 | 0.38 | 0.34 | 0.359 | 0.261 | 0.322 | 0.447 | 0.373 | 0.348 | 0.29 | 0.236 | 0.217 | 0.22 | 0.197 | 0.192
3 | LCLC-97TM1 | 0.209 | 0.268 | 0.279 | 0.229 | 0.231 | 0.199 | 0.261 |  | 0.213 | 0.233 | 0.463 | 0.438 | 0.442 | 0.406 | 0.426 | 0.232 | 0.225 | 0.238 | 0.212 | 0.223
4 | NCI-H647 | 0.328 | 0.398 | 0.406 | 0.43 | 0.316 | 0.302 | 0.381 |  | 0.373 | 0.454 | 0.489 | 0.72 | 0.542 | 0.55 | 0.471 | 0.329 | 0.47 | 0.512 | 0.537 | 0.41
5 | NCI-H1915 | 0.472 | 0.545 | 0.573 | 0.502 | 0.579 | 0.958 | 1.01 | 1.02 | 0.977 | 1.02 | 0.348 | 0.396 | 0.43 | 0.367 | 0.368 | 0.266 | 0.278 | 0.264 | 0.26 | 0.271
6 | LCLC-103H | 0.499 | 0.488 | 0.484 | 0.495 | 0.52 | 0.558 | 0.649 | 0.643 | 0.614 | 0.536 | 0.354 | 0.343 | 0.352 | 0.365 | 0.33 | 0.691 | 0.798 | 0.77 | 0.709 | 0.71
7 | NCI-H1666 | 0.655 | 0.665 | 0.677 | 0.657 | 0.621 | 0.459 | 0.517 | 0.603 | 0.55 | 0.429 | 0.569 | 0.587 | 0.55 | 0.586 | 0.538 | 0.905 | 0.884 | 0.738 | 0.698 | 0.735
8 | NCI-H1651 | 0.488 | 0.539 | 0.516 | 0.498 | 0.55 | 0.462 | 0.729 | 0.616 | 0.614 | 0.593 | 0.289 | 0.332 | 0.352 | 0.353 | 0.368 | 0.552 | 0.633 | 0.591 | 0.557 | 0.523
